Key:
MB cell lines = experiment: AZA treatment, miR-199b-5p expression by real-time PCR; assay type: cell-based; conditions: two cell lines (Med8 and UV238) of a panel of five; 5 μM, 72 h
Protocol: Five MB cell lines (d283, Daoy, med8a, ons76, uw228) were grown in DMEM supplemented with 10% FBS and antibiotics. Upon reaching 85% confluence, the media was spiked with 5-aza-deoxycytidine (AZA) (Sigma) to a final concentration of 5 μM. Over 72 h the media was replaced daily with fresh AZA-enhanced medium. RNA was extracted using a standard phenol (TRIzol)-chloroform protocol.

HES1 = experiment: Western blotting of HES1 protein; assay type: cell-based, human; conditions: Daoy cell line, DAPT 12 h
Protocol: Thirty μg cytosolic or nuclear lysates were loaded onto 12% polyacrilamide gels, and blotted onto polyvinylidene difluoride membranes (PVDF; BioRad, Milan, Italy). The membranes were then incubated with anti-HES1 (kind gift of Dr. Tetsuo Sudo TORAY Industries, Tebiro Kamakura, Japan), a polyclonal rabbit antibody (1:500), an anti-GSK3-β (B&D Bioscience) monoclonal antibody (1:2500), an anti-c-Myc polyclonal rabbit antibody (1:200) (Santa Cruz Biotechnology, Santa Cruz, Calif., USA), an anti-GABRA6 antibody (Santa Cruz Biotechnology, Santa Cruz, USA) (1:200), an anti-MATH3 antibody (Santa Cruz Biotechnology, Santa Cruz, USA) (1:200) and an anti-cyclin D1 (1:200) polyclonal rabbit antibody (Cell Signaling). An anti-β-actin antibody (1:1.000) (Sigma) was used as the control for equal loading of cytosolic lysates and a polyclonal anti-β-laminin antibody (1:50) (Santa Cruz Biotechnology, Santa Cruz, Calif., USA) for equal loading of nuclear lysates.

Daoy cell line [1] = experiment: DAPT treatment, stem-cell gene expression by real-time PCR; assay type: cell-based, human; conditions: Daoy + DAPT 12 h
Protocol: Total RNA was extracted from the cell lines using the Trizol reagent (Invitrogen). Synthesis of cDNA from total RNA (4 μg) was performed using a Super Script II First Strand Kit (Invitrogen). Real-time quantitative PCR was performed using standard protocols with an Applied Biosystems ABI PRISM 7900HT Sequence Detection system. To calculate the relative gene expression of the miR-199b-5p precursor, the relative amounts of each pre-miRNA were normalized to U6 miRNA; the other genes were normalized using the β-actin gene. Real-time PCR primers for each gene were designed using Primer Express software version 2.0 (Applied Biosystems). The primer sequences are available upon request.
(§1) N—[N-(3,5-difluorophenacetyl)-l-alanyl]-S-phenylglycine t-butylester (DAPT (Sigma-Aldrich) treatment of the Daoy cells was performed as follows: the cells were plated and allowed to grow overnight in medium containing 10% FBS. The next morning, the medium was replaced with medium containing 10 μM DAPT and replaced each 4 h with this medium. The expression assays was performed after 0, 6, 12, 24 h of treatment […], using control experiments including the corresponding volume of DMSO as vehicle.

Daoy cell line [2] = experiment: DAPT treatment, miR-199b expression by real-time PCR; assay type: cell-based, human; conditions: 10 μM DAPT, 12 h, relative to time 0
Protocol: The reverse transcriptase (RT) reactions contained 40 ng RNA sample, 50 nM stem-loop RT primer, 1×RT buffer (P/N:4319981, Applied Biosystems), 0.25 mM each of dNTPs, […] MultiScribe RT (P/N: 4319983, Applied Biosystems) and […] RNase inhibitor (P/N: N8080119; Applied Biosystems). The 15 μl reactions were incubated in an Applied Biosystems 9700 Thermocycler for 30 min at 16° C., 30 min at 42° C., 5 min at 85° C., and then held at 4° C.
Real-time PCR was performed using a standard TaqMan PCR kit protocol on an Applied Biosystems 7900HT Sequence Detection System. The 20 μl PCR mix included 2 μl RT product, 10 μl TaqMan Universal PCR Master Mix (Applied Biosystems), […] TaqMan probe. The reactions were incubated in a 96-well plate at 95° C. for 10 min, followed by 60 cycles of 95° C. for 15 s and 60° C. for 1 min.
as §1

Row | Compound | miR-199b-5p expression (MB cell lines) | HES1 protein (Western blot) (HES1) | CD 133 expression 2^-DCt (Daoy cell line [1]) | HMGA1 expression 2^-DCt (Daoy cell line [1]) | HMGB3 expression 2^-DCt (Daoy cell line [1]) | ILF3 expression 2^-DCt (Daoy cell line [1]) | KLF5 expression 2^-DCt (Daoy cell line [1]) | MYBL2 expression 2^-DCt (Daoy cell line [1]) | Nanog expression 2^-DCt (Daoy cell line [1]) | Oct4 expression 2^-DCt (Daoy cell line [1]) | PDGFR-A expression 2^-DCt (Daoy cell line [1]) | PDGFR-B expression 2^-DCt (Daoy cell line [1]) | SPARC expression 2^-DCt (Daoy cell line [1]) | TCF7L1 expression 2^-DCt (Daoy cell line [1]) | TEAD4 expression 2^-DCt (Daoy cell line [1]) | ZIC1 expression 2^-DCt (Daoy cell line [1]) | c-Myc expression 2^-DCt (Daoy cell line [1]) | increase of miR-199b-5p level (Daoy cell line [2]) [fold]
1 | Nc1ncn([C@H]2C[C@H](O)[C@@H](CO)O2)c(=O)n1 [5-aza-deoxycytidine] | significant up-regulation | – | – | – | – | – | – | – | – | – | – | – | – | – | – | – | – | –
2 | C[C@H](NC(=O)Cc1cc(F)cc(F)c1)C(=O)N[C@H](C(=O)OC(C)(C)C)c1ccccc1 [DAPT, N—[N-(3,5-difluorophenacetyl)-l-alanyl]-S-phenylglycine t-butylester] | – | down-regulation | 0.001237 | 0.004879 | 0.005577 | 0.04252 | 0.02368 | 0.003932 | 0.0004488 | 0.0007941 | 0.0000015 | 0.0000606 | 0.07977 | 0.0001026 | 0.005176 | 0.0002784 | 0.05427 | 9

— patent US9017938B2, “Use of microrna-199b-5p in medical and diagnostic field” (Advanced Accelerator Applications, priority 2009, dated 2015)
